Counter-ions that a name gives are not always drawn.
Each compound was assayed against T1, indoleamine 2,3-dioxygenase (IDO) (Homo sapiens, UniProt P14902) (assay: HeLa cell-based indoleamine 2,3-dioxygenase (IDO) assay, kynurenine production). Settings: HeLa cells, IFNγ 25 ng/mL, 48 hour incubation, kynurenine absorbance at 480 nm.
T1 construct: endogenous in cells; host or cells: HeLa (ATCC CCL-2), induced with IFNγ at 25 ng/mL
Method: Assessment of Inhibitor Activity in HeLa Cell-Based Indoleamine 2,3-dioxygenase (IDO) Assay:
HeLa (ATCC® CCL-2) cells were obtained from the ATCC® and cultured in Dulbecco's Modified Eagle Medium supplemented with 4.5 g/L glucose, […] (#10-013-CV, Corning), 2 mM L-alanyl-L-glutamine dipeptide (#35050-061, Gibco), 100U/mL penicillin, 100 μg/mL streptomycin (#SV30010, HyClone) and 10% fetal bovine serum (#SH30071.03 HyClone). Cells were maintained in a humidified incubator at 37° C. in 5% CO2.
IDO activity was assessed as a function of kynurenine production as follows: HeLa cells were seeded in a 96-well culture plate at a density of 5,000 cells/well and allowed to equilibrate overnight. After 24 hours, the media was aspirated and replaced with media containing IFNγ (#285-IF/CF, R&D Systems) at a final concentration of 25 ng/mL. A serial dilution of each test compound was added to the cells in a total volume of 200 μL of culture medium. After a further 48 hour incubation, 170 μL of supernatant was transferred from each well to a fresh 96-well plate. 12.1 μL of 6.1N trichloroacetic acid (#T0699, Sigma-Aldrich) was added to each well and mixed, followed by incubation at 65° C. for 20 minutes to hydrolyze N-formylkynurenine, the product of indoleamine 2,3-dioxygenase, to kynurenine. The reaction mixture was then centrifuged for 10 mins at 500×g to sediment the precipitate. 100 μL of the supernatant was transferred from each well to a fresh 96-well plate. 100 μl of 2% (w/v) p-dimethylaminobenzaldehyde (#15647-7, Sigma-Aldrich) in acetic acid (#A6283, Sigma-Aldrich) was added to each well mixed and incubated at room temperature for 20 inns. Kynurenine concentrations were determined by measuring absorbance at 480 nm and calibrating against an L-kynurenine (#K8625, Sigma-Aldrich) standard curve using a SPECTRAMAX® M2e microplate reader (Molecular Devices). The percentage activity at each inhibitor concentration was determined and IC50 values assessed using nonlinear regression.

T1 sequence (P14902 whole entry): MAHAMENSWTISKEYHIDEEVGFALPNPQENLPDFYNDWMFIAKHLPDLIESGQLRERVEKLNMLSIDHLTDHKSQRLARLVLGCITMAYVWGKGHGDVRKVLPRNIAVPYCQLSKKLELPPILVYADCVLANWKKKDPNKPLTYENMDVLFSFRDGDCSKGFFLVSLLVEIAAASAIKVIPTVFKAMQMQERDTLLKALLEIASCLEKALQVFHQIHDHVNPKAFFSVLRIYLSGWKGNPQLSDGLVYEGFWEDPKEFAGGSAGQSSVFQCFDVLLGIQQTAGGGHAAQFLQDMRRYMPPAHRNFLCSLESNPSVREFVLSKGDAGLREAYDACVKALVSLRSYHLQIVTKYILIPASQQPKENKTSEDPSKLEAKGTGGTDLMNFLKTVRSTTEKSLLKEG

Going from `CC(C(=O)Nc1ccc(Cl)cc1)[C@H]1CC[C@@]2(CC1)OCc1ccccc12` (mixture of isomers) [Example 4, rac-N-(4-Chlorophenyl)-2-((1r,4r)-3′H-spiro[cyclohexane-1,1′-isobenzofuran]-4-yl)propanamide] to `CC(C(=O)Nc1ccc(Cl)cc1)[C@H]1CC[C@]2(CC1)OCc1ccccc12` (mixture of isomers) [Example 5, N-(4-Chlorophenyl)-2-((1s,4s)-3′H-spiro[cyclohexane-1,1′-isobenzofuran]-4-yl)propanamide], the IC50 rises from 0.05 µM to 0.092 µM (1.8-fold). The first is the more potent here.

`CC(C(=O)NC12CC3CC(CC(C3)C1)C2)[C@H]1CC[C@]2(CC1)OCc1ccccc12` (mixture of isomers) [Example 6, rac-N-((1R,3S)-Adamantan-1-yl)-2-((1S,4s)-3′H-spiro[cyclohexane-1,1′-isobenzofuran]-4-yl)propanamide] and `CC(NC(=O)C12CC3CC(CC(C3)C1)C2)[C@H]1CC[C@]2(CC1)OCc1ccccc12` (mixture of isomers) [Example 12, rac-(1R,3S)—N-(1-((1S,4s)-3′H-spiro[cyclohexane-1,1′-isobenzofuran]-4-yl)ethyl)adamantane-1-carboxamide] are within 1.5-fold of each other in IC50: 1.3 µM for the first, 1.44 µM for the second.

Compared with `CC(NC(=O)c1ccc(Cl)cc1)[C@H]1CC[C@]2(CC1)OCc1ccccc12` (mixture of isomers) [Example 11, rac-N-(1-((1s,4s)-3′H-spiro[cyclohexane-1,1′-isobenzofuran]-4-yl)ethyl)-4-chlorobenzamide], `CC(NC(=O)C12CCC(Cl)(CC1)CC2)[C@H]1CC[C@]2(CC1)OCc1ccccc12` (mixture of isomers) [Example 13, rac-N-(1-((1s,4s)-3′H-Spiro[cyclohexane-1,1′-isobenzofuran]-4-yl)ethyl)-4-chlorobicyclo[2.2.2]octane-1-carboxamide] is 14-fold higher in IC50: 0.045 µM for the first, 0.628 µM for the second. The first is the more potent here.

What follows are compounds tested against T2, human IDO1 (Homo sapiens, UniProt P14902) (assay: human IDO1/HEK293 cell IDO inhibition assay). Settings: HEK293 cells stably expressing human IDO1, 20 hours incubation, absorbance at 490 nm; read-out: IDO1 HEK Human IC50.
T2 construct: expressed in transfected cells
T2 sequence (P14902 whole entry): as above
Type: cell-based
Method: HEK293 cells were transfected with a pCDNA-based mammalian expression vector harboring human IDO1 cDNA (NM 002164.2) by electroporation. They were cultured in medium (DMEM with 10% FBS) containing 1 mg/ml G418 for two weeks. Clones of HEK293 cells that stably expressed human IDO1 protein were selected and expanded for IDO inhibition assay.
The human IDO1/HEK293 cells were seeded at 10,000 cells per 50 μL per well with RPMI/phenol red free media contains 10% FBS in a 384-well black wall clear bottom tissue culture plate (Matrix Technologies LLC) 100 nL of certain concentration of compound was then added to each well using ECHO liquid handling systems. The cells were incubated for 20 hours in 37° C. incubator with 5% CO2.
The compound treatments were stopped by adding trichloroacetic acid (Sigma-Aldrich) to a final concentration at 0.2%. The cell plate was further incubated at 50° C. for 30 minute. The equal volume supernatant (20 μL) and 0.2% (w/v) Ehrlich reagent (4-dimethylaminobenzaldehyde, Sigma-Aldrich) in glacial acetic acid were mixed in a new clear bottom 384-well plate. This plate was then incubated at room temperature for 30 minute. The absorbance at 490 nm was measured on Envision plate reader.
Compound IC50 values were calculated using the counts of 500 nM of a reference standard treatment as one hundred percent inhibition, and counts of no compound but DMSO treatment as zero percent inhibition.

Going from `Cc1cccc2c1[C@]1(CC[C@@H](C(C)C(=O)Nc3ccc(Cl)cc3)CC1)OC2` (mixture of isomers) [Example 7, rac-N-(4-Chlorophenyl)-2-((1r,4r)-7′-methyl-3′H-spiro[cyclohexane-1,1′-isobenzofuran]-4-yl)propanamide] to `Cc1cccc2c1[C@]1(CC[C@H](C(C)C(=O)Nc3ccc(Cl)cc3)CC1)OC2` (mixture of isomers) [Example 8, rac-N-(4-chlorophenyl)-2-((1s,4s)-7′-methyl-3′H-spiro[cyclohexane-1,1′-isobenzofuran]-4-yl)propanamide], the IC50 falls from 0.037 µM to 0.024 µM (1.5-fold).

Compared with `Cc1cccc2c1[C@]1(CC[C@H](C(C)C(=O)NC34CC5CC(CC(C5)C3)C4)CC1)OC2` (mixture of isomers) [Example 9, rac-N-((1R,3S)-adamantan-1-yl)-2-((1S,4s)-7′-methyl-3′H-spiro[cyclohexane-1,1′-isobenzofuran]-4-yl)propanamide], `Cc1cccc2c1[C@]1(CC[C@H](C(C)C(=O)NC3(C)CCCCC3)CC1)OC2` (mixture of isomers) [Example 10, rac-2-((1s,4s)-7′-methyl-3′H-spiro[cyclohexane-1,1′-isobenzofuran]-4-yl)-N-(1-methylcyclohexyl)propanamide] is 1.6-fold higher in IC50: 0.617 µM for the first, 0.98 µM for the second.

Going from `CC(C(=O)Nc1ccc(Cl)cc1)[C@H]1CC[C@@]2(CC1)COc1ccccc12` (mixture of isomers) [Example 14, rac-N-(4-Chlorophenyl)-2-((1′r,4′r)-2H-spiro[benzofuran-3,1′-cyclohexan]-4′-yl)propanamide] to `CC(C(=O)Nc1ccc(Cl)cc1)[C@H]1CC[C@]2(CC1)COc1ccccc12` (mixture of isomers) [Example 20, rac-N-(4-Chlorophenyl)-2-((1′s,4′s)-2H-spiro[benzofuran-3,1′-cyclohexan]-4′-yl)propanamide], the IC50 rises from 0.005 µM to 0.061 µM (12-fold).

`CC(NC(=O)c1ccc(Cl)cc1)[C@H]1CC[C@@]2(CC1)COc1ccccc12` (mixture of isomers) [Example 17, rac-N-(1-((1′r,4′r)-2H-Spiro[benzofuran-3,1′-cyclohexan]-4′-yl)ethyl)-4-chlorobenzamide] and `CC(NC(=O)c1ccc(Cl)cc1)[C@H]1CC[C@]2(CC1)COc1ccccc12` (mixture of isomers) [Example 21, rac-N-(1-((1′s,4′s)-2H-Spiro[benzofuran-3,1′-cyclohexan]-4′-yl)ethyl)-4-chlorobenzamide] are the same in IC50: 0.059 µM for the first, 0.059 µM for the second.

First: CC(c1nc2ncc(Cl)cc2[nH]1)[C@H]1CC[C@@]2(CC1)COc1ccccc12 (mixture of isomers) [Example 24, rac-2-(1-((1′r,4′r)-2H-Spiro[benzofuran-3,1′-cyclohexan]-4′-yl)ethyl)-6-chloro-1H-imidazo[4,5-b]pyridine TFA Salt]
Second: C[C@@H](c1nc2ncc(Cl)cc2[nH]1)[C@H]1CC[C@@]2(CC1)COc1ccccc12 [Example 25, 2-((R)-1-((3R,4′r)-2H-spiro[benzofuran-3,1′-cyclohexan]-4′-yl)ethyl)-6-chloro-1H-imidazo[4,5-b]pyridine]
The IC50 of the first is 6.8-fold lower: 0.117 µM for the first, 0.794 µM for the second.

Going from `CC(NC(=O)c1ccc(C#N)cc1)[C@H]1CC[C@]2(CC1)COc1ccccc12` (mixture of isomers) [Example 27, rac-N-(1-((1′s,4′s)-2H-Spiro[benzofuran-3,1′-cyclohexan]-4′-yl)ethyl)-4-cyanobenzamide] to `C[C@@H](NC(=O)c1ccc(Cl)cc1)[C@H]1CC[C@@]2(CC1)COc1ccccc12` [Example 18, N—((R)-1-((1′R,4′r)-2H-Spiro[benzofuran-3,1′-cyclohexan]-4′-yl)ethyl)-4-chlorobenzamide], the IC50 falls from 0.093 µM to 0.009 µM (10-fold). The second is the more potent here.

Going from `Cc1cccc2c1OC(CO)[C@]21CC[C@H](CC(=O)Nc2ccc(Cl)cc2)CC1` (mixture of isomers) [Example 29, rac-N-(4-Chlorophenyl)-2-((1′r,2R,4′R)-2-(hydroxymethyl)-7-methyl-2H-spiro[benzofuran-3,1′-cyclohexan]-4′-yl)acetamide] to `Cc1cccc2c1OC(CO)[C@]21CC[C@@H](CC(=O)Nc2ccc(Cl)cc2)CC1` (mixture of isomers) [Example 30, rac-N-(4-Chlorophenyl)-2-((1′s,2R,4′S)-2-(hydroxymethyl)-7-methyl-2H-spiro[benzofuran-3,1′-cyclohexan]-4′-yl)acetamide], the IC50 rises from 0.068 µM to 0.363 µM (5.3-fold). The first is the more potent here.

First: C[C@@H](C(=O)Nc1ccc(Cl)cc1)[C@H]1CC[C@@]2(CC1)COc1ccccc12 [Example 16, (R)—N-(4-Chlorophenyl)-2-((1′R,4′r)-2H-spiro[benzofuran-3,1′-cyclohexan]-4′-yl)propanamide]
Second: C[C@H](NC(=O)c1ccc(Cl)cc1)[C@H]1CC[C@@]2(CC1)COc1ccccc12 [Example 19, N—((S)-1-((1'S,4′r)-2H-Spiro[benzofuran-3,1′-cyclohexan]-4′-yl)ethyl)-4-chlorobenzamide]
The IC50 of the first is 110-fold lower: 0.008 µM for the first, 0.914 µM for the second. The first is the more potent here.

Compared with `C[C@@H](c1nc2ccc(Cl)cc2[nH]1)[C@H]1CC[C@@]2(CC1)COc1ccccc12` [Example 22, 2-((R)-1-((3R,4′r)-2H-spiro[benzofuran-3,1′-cyclohexan]-4′-yl)ethyl)-6-chloro-1H-benzo[d]imidazole], `C[C@H](c1nc2ccc(Cl)cc2[nH]1)[C@H]1CC[C@@]2(CC1)COc1ccccc12` [Example 23, 2-((S)-1-((3S,4′r)-2H-spiro[benzofuran-3,1′-cyclohexan]-4′-yl)ethyl)-6-chloro-1H-benzo[d]imidazole] is 1.8-fold higher in IC50: 0.142 µM for the first, 0.254 µM for the second. The first is the more potent here.

`C[C@H](c1nc2ncc(Cl)cc2[nH]1)[C@H]1CC[C@@]2(CC1)COc1ccccc12` [Example 26, 2-((S)-1-((3S,4′r)-2H-spiro[benzofuran-3,1′-cyclohexan]-4′-yl)ethyl)-6-chloro-1H-imidazo[4,5-b]pyridine] was tested, and the IC50 was 0.043 µM.

From US11203592B2, “Inhibitors of indoleamine 2,3-dioxygenase and methods of their use” (BRISTOL-MYERS SQUIBB COMPANY, priority 2017, dated 2021)
